Source: patent publication US7628996B2, “Sterile immunogenic non-tumorigenic tumor cell compositions and methods” (priority 2002, dated 2009)
Several values for one entry are separate records, joined by “and”; a condition that tells them apart may be missing. Equal entries are not always repeated. Entries after “also recorded” stand apart in the source; their conditions may differ.

Legend:
Enterococcus faecalis = experiment: Short exposure of test microorganism to antibiotic; format: cell-based; conditions: 12.5 to 50 μg/mL, one hour at 37° C.
Method: (§1) Appropriate test microorganisms were incubated with the antibiotic for varying periods of time and at 4° C. or 37° C. “Untreated” controls were incubated with HBSS. After completion of the treatment, the samples were assayed for bioburden by the membrane filtration method on Tryptic Soy agar containing 5% sheep blood (TSA-SB) and Sabouraud's dextrose medium (SAB).
(§2) Two members of the quinolone class of antibiotics norfloxacin (Noroxin® (Merck & Co., Inc.)) and levofloxacin (Levaquin® (Ortho-McNeil)) also were evaluated. In preliminary experiments, norfloxacin was tested against Enterococcus faecalis and Pseudomonas aeruginosa.

Pseudomonas aeruginosa = experiment: Short exposure of test microorganism to antibiotic; format: cell-based; conditions: 12.5 to 50 μg/mL, one hour at 37° C.
Method: as §1, §2

[1] = tested on: bioburden of colon tumors; experiment: Disinfection of trimmed colon tumor pieces before dissociation: bioburden of tumor cell suspension; format: cell-based; conditions: for Bioburden SAB-CM Aerobic / Bioburden TSA-SB Aerobic / Bioburden TSA-SB Anaerobic: per patient tumor sample; for effect of disinfectant on bioburden (in words): treatment of trimmed tumor pieces, concentrations tested
Source text: (§3) For pathological staging purposes, the pathologist cuts the tumor to determine the deepest margin of penetration. Consequently, the excised tumors are comprised of several pieces of tumor tissue. The tissue was dissected to remove extraneous non-tumor and necrotic tissue. The trimmed tumor pieces were further subdivided to achieve homogeneity and divided into two to four groups for processing according to the experimental design. The tissue was divided as evenly as possible among the samples, taking care to make the tumor pieces in the experimental groups appear as identical as possible. The trimmed pieces were added to a tube containing 40 mL of disinfectant and then treated by shaking for 2 minutes at 200 rpm on a rotating platform shaker. The trimmed tumor pieces were then washed three times with HBSS and then dissociated. The amount of tumor dissociated was determined by weighing the tumor fragments prior to dissociation and after completion of the dissociation cycles. After dissociation, the tumor cell suspension was sampled for percent tumor cell viability, number of viable tumor cells, tumor cell potency and bioburden. The yield was defined as the number of viable tumor cells obtained per gram of tumor that was actually dissociated. The bioburden was normalized to CFU/10^7 viable tumor cells, approximately one dose of product.
(§4) Tumor sample 500-0051-KNO was washed with saline, a second wash with 1% Triton X-100 and followed by three additional saline washes (see Example 1). The resultant bioburden was below the limit of detection of the assay. In order to evaluate the ability of a disinfectant to remove bioburden, one to two logs of bioburden must be detectable in the control sample. In order to maximize the possible bioburden in the tumors and present a greater challenge to the disinfectant, the following modifications to the procedure were made: the tumors were minimally washed (one 500 mL quantity) prior to pathological dissection; the dissociations were performed in the absence of gentamicin.

microbial growth = experiment: Disinfection of trimmed colon tumor pieces before dissociation: sterility in TSB and FTG broth; format: cell-based; set-up: key: Pass (P) (no evidence of microbial growth); Fail (F) (Microbial growth); conditions: per patient tumor sample
Source text: as §3, §4

[2] = tested on: endogenous bioburden present in colon tumors; experiment: Additional one hour incubation with antibiotics after enzymatic dissociation: bioburden; format: cell-based; conditions: additional incubation vs no incubation; per tumor
Method: as §1
For the first four tumors processed, a portion of the cell suspension dissociated in the presence of gentamicin or gentamicin with other antibiotics was also incubated for an additional hour (after completion of the dissociation) with the same antibiotic(s). This additional incubation was evaluated for increased reduction of bioburden.

Bacteriodes vulgatus = experiment: Short exposure of test microorganism to antibiotic; format: cell-based
Method: as §1
Anaerobes are the predominant microorganisms in the colon. […] Lincomycin (Lincocin hydrochloride) (Sigma-Aldrich Co.) and Primaxin® were then tested against this anaerobe.

Candida albicans = experiment: Short exposure of test microorganism to anti-mycotic; format: cell-based
Method: as §1
Amphotericin B was selected for action on yeasts and mold.

colon tumor cells = experiment: Disinfection of trimmed colon tumor pieces before dissociation: tumor cell viability, yield, potency; format: cell-based, human; conditions: treatment of trimmed tumor pieces, relative to control
Source text: as §3, with “The trimmed tumor pieces were then washed three times with HBSS and then dissociated.” left out, “After dissociation, the tumor cell suspension was sampled for percent tumor cell viability, number of viable tumor cells, tumor cell potency and bioburden. The yield was defined as the number of viable tumor cells obtained per gram of tumor that was actually dissociated. The bioburden was normalized to CFU/10^7 viable tumor cells, approximately one dose of product.” left out
as §4, with “The resultant bioburden was below the limit of detection of the assay. In order to evaluate the ability of a disinfectant to remove bioburden, one to two logs of bioburden must be detectable in the control sample.” left out

[3] = 0.4% Clorpactin, 2 successive 2 min treatments
[4] = 0.4% Clorpactin, one 2 min treatment

## CCn1cc(C(=O)O)c(=O)c2cc(F)c(N3CCNCC3)cc21 [Norfloxacin, norfloxacin]
Enterococcus faecalis
  effectiveness (in words): ineffectual
Pseudomonas aeruginosa
  effectiveness (in words): highly effective

## sodium oxychlorosene [Clorpactin ®]
[1]; [3]
  Bioburden SAB-CM Aerobic: ≦2 CFU/107 Cells
  Bioburden TSA-SB Aerobic: ≦2 CFU/107 Cells
  Bioburden TSA-SB Anaerobic: 3800 CFU/107 Cells and ≦2 CFU/107 Cells
[1]; 0.4% Clorpactin, 2 successive 2 min treatments, vs control of same tumor
  % Reduction of bioburden TSA-SB Aerobic: (99%)
[1]; 0.4% Clorpactin, fresh disinfectant each time
  two successive two minute treatments versus single treatment (in words): No advantage for two treatments was observed
[1]; [4]
  Bioburden SAB-CM Aerobic: 207 CFU/107 Cells and ≦11 CFU/107 Cells and ≦23 CFU/107 Cells and ≦2 CFU/107 Cells (2×) and <49 CFU/107 Cells
  Bioburden TSA-SB Aerobic: 3910 CFU/107 Cells and <11 CFU/107 Cells and <23 CFU/107 Cells and 2 CFU/107 Cells and ≦2 CFU/107 Cells and <49 CFU/107 Cells
  Bioburden TSA-SB Anaerobic: 3890 CFU/107 Cells and 343 CFU/107 Cells and <23 CFU/107 Cells and 294 CFU/107 Cells and ≦2 CFU/107 Cells and <49 CFU/107 Cells
[1]; 0.8% Clorpactin, 2 min
  Bioburden SAB-CM Aerobic: 4452 CFU/107 Cells and ≦13 CFU/107 Cells
  Bioburden TSA-SB Aerobic: 7100 CFU/107 Cells and <13 CFU/107 Cells
  Bioburden TSA-SB Anaerobic: 8870 CFU/107 Cells and 1364 CFU/107 Cells
[1]; 0.8% Clorpactin, 2 min, vs control of same tumor
  % Reduction of bioburden TSA-SB Anaerobic: (92%)
[1]; Clorpactin at 0.8% compared with 0.4%
  effect on bioburden (in words): no further reduction in bioburden was observed
[1]
  effect of disinfectant on bioburden (in words): reduced the bioburden in the sample; also recorded: bioburden reductions to almost three orders of magnitude
Microbial growth; [3]
  Sterility FTG: F and P
  Sterility TSB: F
Microbial growth; [4]
  Sterility FTG: F (3×) and P (3×)
  Sterility TSB: F (4×) and P (2×)
Microbial growth; 0.8% Clorpactin, 2 min
  Sterility FTG: F
  Sterility TSB: F

## gentamicin
[2]
  Percent Reduction of Bioburden, SAB medium: 80%
  Percent Reduction of Bioburden, TSA medium: 41%

## Cc1ncc([N+](=O)[O-])n1CCO [Flagyl]
Bacteriodes vulgatus; 2.5 and 5 μg/mL, aerobic incubation conditions
  effectiveness against the anaerobe (in words): ineffectual

## C[C@@H]1[C@H](O)[C@@H](C)/C=C/C=C/C=C/C=C/C=C/C=C/C=C/[C@H](O[C@@H]2O[C@H](C)[C@@H](O)[C@H](N)[C@@H]2O)C[C@@H]2O[C@](O)(C[C@@H](O)C[C@@H](O)[C@H](O)CC[C@@H](O)C[C@@H](O)CC(=O)O[C@H]1C)C[C@H](O)[C@H]2C(=O)O [amphotericin B]
Candida albicans; 0.5 to 1.0 μg/mL, observed one day after treatment
  reduction in colonies (in words): Marked reduction in colonies
Candida albicans; observed after 8 days in culture, higher concentration
  inhibition (in words): only slight inhibition

## OCl [sodium hypochlorite]
Colon tumor cells
  effect of disinfectant on tumor cell yield (in words): significantly reduced the tumor cell yield relative to the control
[1]
  effect of disinfectant on bioburden (in words): effective in reducing the bioburden

## CCC[C@@H]1C[C@@H](C(=O)N[C@@H]([C@H]2O[C@H](SC)[C@H](O)[C@@H](O)[C@H]2O)[C@@H](C)O)N(C)C1 [lincomycin, Lincomycin]
Bacteriodes vulgatus; extended conditions: 40 minutes at 37° C., 4° C. for 60 minutes, additional 60 minutes at 37° C.
  reduction of the anaerobe: one log reduction
Bacteriodes vulgatus; overnight at 4° C., Primaxin 100 μg/mL, lincomycin up to 150 μg/mL
  reduction of the anaerobe: no effect
